Assay results: patent publication US7445897B2, “Sequence variants of multi-drug resistance genes, MDR1 and MRP1, and methods for assessment of drug penetration and disposition” (University of Washington, priority 2004, dated 2008)
Where two headings read alike, the source gives them in different places.

Legend:
[1] = system: P-gp (MDR11199, G1199A) in recombinant LLC-PK1 cells; details: human, LLC-PK1
[2] = system: LLC-PK1 control cells
[3] = van Heeswijk et al. 2001; cited from earlier work
[4] = system: MDR1 (wild type); test: Cytotoxic drug sensitivity assay (MTS); type: cell-based, human; details: human, HEK293 cells recombinantly expressing MDR1 wild type
[5] = system: MDR1 (G1199A variant); test: in vitro; details: human; for EC50 at 72 h: HEK293 cells recombinantly expressing MDR1 G1199A
[6] = system: MDR1 (G1199T variant); test: Cytotoxic drug sensitivity assay (MTS); type: cell-based, human; details: human, HEK293 cells recombinantly expressing MDR1 G1199T
[7] = system: HEK negative control cells; test: Cytotoxic drug sensitivity assay (MTS); type: cell-based, human; details: Homo sapiens, 72 h
[8] = system: LLC-PK1 control cells; test: Cytotoxic drug sensitivity assay (3H-thymidine); type: cell-based, porcine; details: Sus scrofa, 72 h, 3 days with drug
Procedure: (§1) On the second day of the incubation, 1 μCi of ^3H-thymidine (specific activity: 81.1 Ci/mmole) was added to each well and incubated overnight. Cells were harvested on day 3 with a cell harvester.
(§2) Dose response analysis was performed for doxorubicin, vincristine and vinblastine. […] TRANSEPITHELIAL TRANSPORT

[9] = system: recombinant MDR1wt LLC-PK1 cells; test: Cytotoxic drug sensitivity assay (3H-thymidine); type: cell-based, porcine; details: for EC50 fold-change from control: MDR1wt vs LLC-PK1 control; for EC50: Sus scrofa, 72 h, MDR1wt LLC-PK1 cells, 3 days with drug
Procedure: as §1, §2

[10] = system: recombinant MDR11199 LLC-PK1 cells; test: Cytotoxic drug sensitivity assay (3H-thymidine); type: cell-based, porcine; details: for EC50 fold-change from control: MDR11199 vs LLC-PK1 control; for EC50: Sus scrofa, 72 h, MDR11199 LLC-PK1 cells, 3 days with drug
Procedure: as §1, §2

[11] = system: LLC-PK1 control cells; test: Intracellular uptake of HIV protease inhibitors; type: in vitro ADME, porcine
[12] = target: MDR1 (wild type) (Homo sapiens, UniProt P08183, G185V/S893A); test: in vitro
MDR1 (wild type) (Homo sapiens, UniProt P08183, G185V/S893A), sequence (P08183 whole entry G185V/S893A): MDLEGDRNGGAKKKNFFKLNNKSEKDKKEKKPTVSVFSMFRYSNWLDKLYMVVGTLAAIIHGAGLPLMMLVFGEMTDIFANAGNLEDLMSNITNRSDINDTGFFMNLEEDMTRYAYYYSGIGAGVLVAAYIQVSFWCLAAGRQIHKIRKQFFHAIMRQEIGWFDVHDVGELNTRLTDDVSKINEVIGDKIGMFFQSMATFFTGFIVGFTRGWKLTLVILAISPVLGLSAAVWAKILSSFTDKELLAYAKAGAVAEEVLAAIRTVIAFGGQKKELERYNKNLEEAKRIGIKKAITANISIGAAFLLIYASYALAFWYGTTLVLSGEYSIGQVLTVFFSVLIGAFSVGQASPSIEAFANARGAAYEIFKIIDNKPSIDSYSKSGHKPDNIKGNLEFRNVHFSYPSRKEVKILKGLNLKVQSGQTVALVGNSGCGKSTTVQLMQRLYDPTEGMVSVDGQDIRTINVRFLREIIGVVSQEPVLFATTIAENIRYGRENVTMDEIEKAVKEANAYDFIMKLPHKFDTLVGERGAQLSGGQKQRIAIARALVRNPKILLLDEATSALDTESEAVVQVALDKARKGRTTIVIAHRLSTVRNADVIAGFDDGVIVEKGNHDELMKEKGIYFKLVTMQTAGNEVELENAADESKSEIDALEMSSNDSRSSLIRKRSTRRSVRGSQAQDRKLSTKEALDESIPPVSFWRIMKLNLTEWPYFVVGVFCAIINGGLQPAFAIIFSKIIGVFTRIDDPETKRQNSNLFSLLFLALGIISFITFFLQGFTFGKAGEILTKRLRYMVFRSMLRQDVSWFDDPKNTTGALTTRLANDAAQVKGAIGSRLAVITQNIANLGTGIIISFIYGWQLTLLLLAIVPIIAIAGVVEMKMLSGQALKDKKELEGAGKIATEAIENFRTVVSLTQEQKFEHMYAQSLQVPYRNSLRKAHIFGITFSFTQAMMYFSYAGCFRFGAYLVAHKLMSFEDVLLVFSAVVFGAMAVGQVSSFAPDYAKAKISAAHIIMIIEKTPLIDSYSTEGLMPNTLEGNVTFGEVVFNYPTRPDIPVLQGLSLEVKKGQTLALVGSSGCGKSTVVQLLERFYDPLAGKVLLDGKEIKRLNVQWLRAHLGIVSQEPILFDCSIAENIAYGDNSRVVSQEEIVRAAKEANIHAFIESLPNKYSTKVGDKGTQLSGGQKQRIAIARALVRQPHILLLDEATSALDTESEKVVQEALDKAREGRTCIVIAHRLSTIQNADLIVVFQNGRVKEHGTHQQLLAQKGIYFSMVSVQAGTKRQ

[13] = target: MDR1 (1199A variant) (Homo sapiens, UniProt P08183, G185V/S400N/S893A); test: Intracellular uptake of HIV protease inhibitors; details: recombinant LLC-PK1 cells expressing MDR1-1199A
MDR1 (1199A variant), sequence (P08183 whole entry G185V/S400N/S893A): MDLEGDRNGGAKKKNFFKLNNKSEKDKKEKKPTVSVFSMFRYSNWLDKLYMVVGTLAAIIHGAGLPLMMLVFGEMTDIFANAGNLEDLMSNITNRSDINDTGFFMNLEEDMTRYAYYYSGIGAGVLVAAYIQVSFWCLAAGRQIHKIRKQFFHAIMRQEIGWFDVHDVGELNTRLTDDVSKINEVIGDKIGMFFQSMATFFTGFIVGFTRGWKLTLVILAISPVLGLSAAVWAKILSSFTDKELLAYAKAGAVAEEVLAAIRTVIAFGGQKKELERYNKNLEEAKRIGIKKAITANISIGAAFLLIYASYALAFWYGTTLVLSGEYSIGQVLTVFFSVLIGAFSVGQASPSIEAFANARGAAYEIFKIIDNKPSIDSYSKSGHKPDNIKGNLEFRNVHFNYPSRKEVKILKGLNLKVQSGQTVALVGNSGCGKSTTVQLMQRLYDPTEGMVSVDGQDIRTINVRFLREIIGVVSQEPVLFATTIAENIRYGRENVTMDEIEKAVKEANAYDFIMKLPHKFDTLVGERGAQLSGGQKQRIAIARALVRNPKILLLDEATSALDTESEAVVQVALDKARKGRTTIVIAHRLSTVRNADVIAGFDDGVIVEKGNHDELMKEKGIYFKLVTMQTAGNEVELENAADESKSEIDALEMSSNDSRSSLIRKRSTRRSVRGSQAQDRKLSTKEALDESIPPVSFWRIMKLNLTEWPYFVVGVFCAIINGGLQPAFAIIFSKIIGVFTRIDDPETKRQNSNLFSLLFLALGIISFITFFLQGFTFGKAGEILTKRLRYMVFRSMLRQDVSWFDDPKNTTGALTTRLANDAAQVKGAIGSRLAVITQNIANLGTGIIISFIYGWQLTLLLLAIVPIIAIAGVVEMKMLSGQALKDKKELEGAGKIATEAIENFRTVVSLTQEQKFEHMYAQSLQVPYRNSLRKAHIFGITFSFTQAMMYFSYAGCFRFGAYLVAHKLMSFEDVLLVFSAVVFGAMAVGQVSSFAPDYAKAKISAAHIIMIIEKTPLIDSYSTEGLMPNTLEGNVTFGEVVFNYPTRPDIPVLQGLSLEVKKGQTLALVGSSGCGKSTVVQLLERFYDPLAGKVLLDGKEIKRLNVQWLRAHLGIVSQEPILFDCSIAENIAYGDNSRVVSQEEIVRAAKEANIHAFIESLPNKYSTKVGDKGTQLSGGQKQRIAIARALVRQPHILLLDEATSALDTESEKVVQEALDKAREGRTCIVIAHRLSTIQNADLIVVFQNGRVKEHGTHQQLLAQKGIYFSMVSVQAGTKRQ

[14] = protease inhibitor + GF120918 (1 μM)
[15] = HEK MDR1 WT, 72hours, MTS, read-out: EC50 (Mean ± S.D.)
[16] = HEK MDR1 G1199T, 72hours, MTS, read-out: EC50 (Mean ± S.D.)
[17] = HEK Control, 72hours, MTS, read-out: EC50 (Mean ± S.D.)

## Cc1cccc(C)c1OCC(=O)N[C@@H](Cc1ccccc1)[C@@H](O)C[C@H](Cc1ccccc1)NC(=O)[C@H](C(C)C)N1CCCNC1=O [lopinavir]
[1]
  decrease in apical-to-basolateral flux in MDR11199 cells compared to MDR1wt cells: 1.6 fold
[2]; [14]
  Rate of transfer dQ/dt ± s.d., A → B: 8.48 ± 0.16
[2]; protease inhibitor alone, 5 μM
  Rate of transfer dQ/dt ± s.d., A → B: 9.21 ± 0.24

## Cc1c(O)cccc1C(=O)N[C@@H](CSc1ccccc1)[C@H](O)CN1C[C@H]2CCCC[C@H]2C[C@H]1C(=O)NC(C)(C)C [nelfinavir]
[3]
  oral bioavailability in systemic circulation: 70-80%

## COc1cccc2c1C(=O)c1c(O)c3c(c(O)c1C2=O)C[C@@](O)(C(=O)CO)C[C@@H]3O[C@H]1C[C@H](N)[C@H](O)[C@H](C)O1 [doxorubicin]
[4]; [15]
  EC50 at 72 h: 1110 ± 112 nM
[5]
  EC50: 2180 ± 361 nM
[6]; [16]
  EC50 at 72 h: 383 ± 39 nM
[7]; [17]
  EC50: 45.5 ± 25.1 nM
[8]
  EC50: 34.2 ± 3.1 nM
[9]
  EC50 fold-change from control: 4.53 fold
  EC50: 155 ± 68 nM
[10]
  EC50 fold-change from control: 3.51 fold
  EC50: 120 ± 32 nM

## CC(C)c1nc(CN(C)C(=O)N[C@H](C(=O)N[C@@H](Cc2ccccc2)C[C@H](O)[C@H](Cc2ccccc2)NC(=O)OCc2cncs2)C(C)C)cs1 [ritonavir]
[11]
  Km: 0.25 µM
[3]
  oral bioavailability in systemic circulation: 60-80%
[1]
  decrease in apical-to-basolateral flux in MDR11199 cells compared to MDR1wt cells: 2.3 fold
  increase in basolateral-to-apical efflux in MDR11199 cells compared to MDR1wt: 1.2 fold
[2]; [14]
  Rate of transfer dQ/dt ± s.d., A → B: 6.46 ± 0.69
  Rate of transfer dQ/dt ± s.d., B → A: 9.60 ± 0.75
[2]; protease inhibitor alone, 5 μM
  Rate of transfer dQ/dt ± s.d., A → B: 6.46 ± 0.94
  Rate of transfer dQ/dt ± s.d., B → A: 11.0 ± 0.5

## CC(=O)O[C@H]1C(=O)[C@@]2(C)[C@H]([C@H](OC(=O)c3ccccc3)[C@]3(O)C[C@H](OC(=O)[C@H](O)[C@@H](NC(=O)c4ccccc4)c4ccccc4)C(C)=C1C3(C)C)[C@]1(OC(C)=O)CO[C@@H]1C[C@@H]2O [paclitaxel]
[4]; [15]
  EC50 at 72 h: 128 ± 50 nM
[6]; [16]
  EC50 at 72 h: 42.7 ± 12.7 nM
[7]; [17]
  EC50: 2.67 ± 0.13 nM

## CC[C@]1(O)C[C@H]2CN(CCc3c([nH]c4ccccc34)[C@@](C(=O)OC)(c3cc4c(cc3OC)N(C=O)[C@H]3[C@@](O)(C(=O)OC)[C@H](OC(C)=O)[C@]5(CC)C=CCN6CC[C@]43[C@@H]65)C2)C1 [vincristine]
[4]; HEK - MDR1 WT, 0 month, 72 hours, read-out: EC50 for cell growth inhibition
  EC50 at 72 h: 494 ± 115 nM
[4]; HEK - MDR1 WT, 1 months, 72 hours, read-out: EC50 for cell growth inhibition
  EC50 at 72 h: 512 ± 85.1 nM
[4]; HEK - MDR1 WT, 2 months, 72 hours, read-out: EC50 for cell growth inhibition
  EC50 at 72 h: 710 ± 33.3 nM
[4]; [15]
  EC50 at 72 h: 710 ± 33.3 nM
[5]
  EC50 at 72 h: 860 ± 51.8 nM
[5]; EC50 for cell growth inhibition, HEK - MDR1 G1199A, 0 month, 72 hours
  EC50 at 72 h: 683 ± 276 nM
[5]; EC50 for cell growth inhibition, HEK - MDR1 G1199A, 1 months, 72 hours
  EC50 at 72 h: 667 ± 87.5 nM
[5]; EC50 for cell growth inhibition, HEK - MDR1 G1199A, 2 months, 72 hours
  EC50 at 72 h: 860 ± 51.8 nM
[6]; HEK - MDR1 G1199T, 0 month, 72 hours, read-out: EC50 for cell growth inhibition
  EC50 at 72 h: 246 ± 84 nM
[7]; [17]
  EC50: 10.2 ± 1.04 nM
[7]; HEK negative control, 0 month, 72 hours, read-out: EC50 for cell growth inhibition
  EC50: 4.01 ± 1.29 nM
[7]; HEK negative control, 1 months, 72 hours, read-out: EC50 for cell growth inhibition
  EC50: 6.68 ± 0.448 nM
[7]; HEK negative control, 2 months, 72 hours, read-out: EC50 for cell growth inhibition
  EC50: 10.2 ± 1.04 nM
[8]
  EC50: 0.37 ± 0.12 nM
[9]
  EC50 fold-change from control: 3.19 fold
  EC50: 1.18 ± 0.56 nM
[10]
  EC50 fold-change from control: 9.23 fold
  EC50: 3.41 ± 1.47 nM
[10]; MDR11199 vs MDR1wt, from EC50
  resistance of MDR11199 cells relative to MDR1wt cells: ~2.9 fold
[10]; cytotoxicity studies, LLC-PK1
  resistance of MDR11199 cells compared with MDR1wt cells: more resistant

## CC(C)CN(C[C@@H](O)[C@H](Cc1ccccc1)NC(=O)O[C@H]1CCOC1)S(=O)(=O)c1ccc(N)cc1 [amprenavir]
[11]
  Km: 0.25 µM
  Vmax: 0.048 pmole/min*10^6 cells
[3]
  oral bioavailability in systemic circulation: 35-90%
[12]
  Km: 10.2 µM
[13]
  Km: 1 µM
[2]; [14]
  Rate of transfer dQ/dt ± s.d., A → B: 10.8 ± 0.9
  Rate of transfer dQ/dt ± s.d., B → A: 10.2 ± 0.4
[2]; protease inhibitor alone, 5 μM
  Rate of transfer dQ/dt ± s.d., A → B: 9.33 ± 0.46
  Rate of transfer dQ/dt ± s.d., B → A: 11.6 ± 0.8
